# Like-named read-outs stand apart in the source and are kept apart here.
# Target: T1, Recombinant human TPH1 (MBP tagged) (Homo sapiens, UniProt P17752)
# T1 construct: cloning full length human TPH1 cDNA in to a bacterial pMAL-c5E expression vector; made in house; host or cells: E. coli BL21 (DE3)
# T1 sequence (P17752 1-444): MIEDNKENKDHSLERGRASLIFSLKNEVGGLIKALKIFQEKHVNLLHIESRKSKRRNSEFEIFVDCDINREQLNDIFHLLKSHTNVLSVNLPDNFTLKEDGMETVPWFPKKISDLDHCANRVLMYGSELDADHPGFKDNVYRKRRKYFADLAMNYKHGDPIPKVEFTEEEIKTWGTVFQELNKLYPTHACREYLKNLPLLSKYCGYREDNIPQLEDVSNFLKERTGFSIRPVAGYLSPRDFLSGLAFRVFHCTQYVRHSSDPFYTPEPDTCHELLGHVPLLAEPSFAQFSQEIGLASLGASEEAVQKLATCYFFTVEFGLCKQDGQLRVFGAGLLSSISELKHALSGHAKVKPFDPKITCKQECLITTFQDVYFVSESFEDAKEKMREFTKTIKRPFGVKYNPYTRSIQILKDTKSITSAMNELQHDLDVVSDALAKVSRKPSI
# Assay: TPH1 in vitro inhibition assay (kinetic fluorescence)
# Format: biochemical
# Summary of the method: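 Final mix: 15 nM MBP-TPH1, 30 μM Trp, 36 μM 6-methyltetrahydropterin, 25 μM ferrous ammonium sulfate, 50 mM MES pH 7.1, 1% DMSO, room temperature.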
# [1] = read-out: TPH1 Range (TPH1 inhibition IC50)
# [2] = TPH1 Range (TPH1 inhibition IC50)
IC50 [1] [nM],SMILES,IC50 [2] [nM]
50 to 300,"Cc1ccn(-c2cc(-c3cc(Cl)cc(C(F)(F)F)c3)ccc2[C@@H](Oc2cc(N3CCC4(CC3)CN[C@H](C(=O)O)C4)nc(N)n2)C(F)(F)F)n1 [Example 1ak, (S)-8-(2-amino-6-((R)-1-(3′-chloro-3-(3-methyl-1H-pyrazol-1-yl)-5′-(trifluoromethyl)-[1,1′-biphenyl]-4-yl)-2,2,2-trifluoroethoxy)pyrimidin-4-yl)-2,8-diazaspiro[4.5]decane-3-carboxylic acid]",
50 to 300,"Nc1nc(O[C@H](c2ccc(-c3ccc(C(=O)O)c(O)c3)cc2)C(F)(F)F)cc(N2CCC3(CC2)CN[C@H](C(=O)O)C3)n1 [Example 55ag, (S)-8-(2-amino-6-((R)-1-(4′-carboxy-3′-hydroxy-[1,1′-biphenyl]-4-yl)-2,2,2-trifluoroethoxy)pyrimidin-4-yl)-2,8-diazaspiro[4.5]decane-3-carboxylic acid]",
300 to 3000,"Nc1nc(OC(c2c(Br)cccc2Br)C(F)(F)F)cc(N2CCC3(CC2)CN[C@H](C(=O)O)C3)n1 (stereo partly drawn) [Example 47, (3S)-8-(2-Amino-6-(1-(2,6-dibromophenyl)-2,2,2-trifluoroethoxy)pyrimidin-4-yl)-2,8-diazaspiro[4.5]decane-3-carboxylic acid]",
,"Nc1nc(O[C@H](c2ccc(Cl)cc2-c2ccccc2)C(F)(F)F)cc(N2CCC3(CC2)CN[C@H](C(=O)O)C3)n1 [Example 34c, (S)-8-(2-amino-6-((R)-1-(5-chloro-[1,1′-biphenyl]-2-yl)-2,2,2-trifluoroethoxy)pyrimidin-4-yl)-2,8-diazaspiro[4.5]decane-3-carboxylic acid]",50 to 300
< 50,"Nc1nc(O[C@H](c2ccc(Cl)cc2-c2ccc(F)c(Cl)c2)C(F)(F)F)cc(N2CCC3(CC2)CN[C@H](C(=O)O)C3)n1 [Example 34av, (S)-8-(2-amino-6-((R)-1-(3′,5-dichloro-4′-fluoro-[1,1′-biphenyl]-2-yl)-2,2,2-trifluoroethoxy)pyrimidin-4-yl)-2,8-diazaspiro[4.5]decane-3-carboxylic acid]",
50 to 300,"CCc1ccc([C@@H](Oc2cc(N3CCC4(CC3)CN[C@H](C(=O)O)C4)nc(N)n2)C(F)(F)F)c(-n2ccc(C)n2)c1 [Example 12a, (S)-8-(2-amino-6-((R)-1-(4-ethyl-2-(3-methyl-H-pyrazol-1-yl)phenyl)-2,2,2-trifluoroethoxy)pyrimidin-4-yl)-2,8-diazaspiro[4.5]decane-3-carboxylic acid]",
50 to 300,"Nc1nc(O[C@H](c2ccc(Cl)cc2-c2cccc(OC3CCCC3)c2)C(F)(F)F)cc(N2CCC3(CC2)CN[C@H](C(=O)O)C3)n1 [Example 34cb, (S)-8-(2-amino-6-((R)-1-(5-chloro-3′-(cyclopentyloxy)-[1,1′-biphenyl]-2-yl)-2,2,2-trifluoroethoxy)pyrimidin-4-yl)-2,8-diazaspiro[4.5]decane-3-carboxylic acid]",
< 50,"Cc1ccn(-c2cc(-c3cncnc3)ccc2[C@@H](Oc2cc(N3CCC4(CC3)CN[C@H](C(=O)O)C4)nc(N)n2)C(F)(F)F)n1 [Example 1ai, (S)-8-(2-amino-6-((R)-2,2,2-trifluoro-1-(2-(3-methyl-1H-pyrazol-1-yl)-4-(pyrimidin-5-yl)phenyl)ethoxy)pyrimidin-4-yl)-2,8-diazaspiro[4.5]decane-3-carboxylic acid]",
50 to 300,"CCOc1ccc(-c2ccc([C@@H](Oc3cc(N4CCC5(CC4)CN[C@H](C(=O)O)C5)nc(N)n3)C(F)(F)F)cc2)cc1F [Example 55dn, (S)-8-(2-amino-6-((R)-1-(4′-ethoxy-3′-fluoro-[1,1′-biphenyl]-4-yl)-2,2,2-trifluoroethoxy)pyrimidin-4-yl)-2,8-diazaspiro[4.5]decane-3-carboxylic acid]",
300 to 3000,"Nc1nc(O[C@H](c2ccc(Br)cc2)C(F)(F)F)cc(N2CCC3(CC2)CN[C@H](C(=O)O)C3)n1 [Example 59, (S)-8-(2-amino-6-((R)-1-(4-bromophenyl)-2,2,2-trifluoroethoxy)pyrimidin-4-yl)-2,8-diazaspiro[4.5]decane-3-carboxylic acid]",
< 50,"Cc1ccn(-c2cc(-c3ccc(OC(C)C)cc3)ccc2[C@@H](Oc2cc(N3CCC4(CC3)CN[C@H](C(=O)O)C4)nc(C)n2)C(F)(F)F)n1 [Example 29o, (S)-8-(2-methyl-6-((R)-2,2,2-trifluoro-1-(4′-isopropoxy-3-(3-methyl-1H-pyrazol-1-yl)-[1,1′-biphenyl]-4-yl)ethoxy)pyrimidin-4-yl)-2,8-diazaspiro[4.5]decane-3-carboxylic acid]",
50 to 300,"Cc1ccn(-c2ccc(/C=C/C(=O)O)cc2[C@@H](Oc2cc(N3CCC4(CC3)CN[C@H](C(=O)O)C4)nc(N)n2)C(F)(F)F)n1 [Example 19d, (S)-8-(2-amino-6-((R)-1-(5-((E)-2-carboxyvinyl)-2-(3-methyl-1H-pyrazol-1-yl)phenyl)-2,2,2-trifluoroethoxy)pyrimidin-4-yl)-2,8-diazaspiro[4.5]decane-3-carboxylic acid]",
,"CC(C)(C)c1cccc(-c2cc(Cl)ccc2[C@@H](Oc2cc(N3CCC4(CC3)CN[C@H](C(=O)O)C4)nc(N)n2)C(F)(F)F)c1 [Example 34ao, (S)-8-(2-amino-6-((R)-1-(3′-(tert-butyl)-5-chloro-[1,1′-biphenyl]-2-yl)-2,2,2-trifluoroethoxy)pyrimidin-4-yl)-2,8-diazaspiro[4.5]decane-3-carboxylic acid]",< 50
50 to 300,"COC(=O)c1cccc(-c2ccc([C@@H](Oc3cc(N4CCC5(CC4)CN[C@H](C(=O)O)C5)nc(C)n3)C(F)(F)F)c(-n3ccc(C)n3)c2)c1 [Example 29u, (S)-8-(2-methyl-6-((R)-2,2,2-trifluoro-1-(3′-(methoxycarbonyl)-3-(3-methyl-1H-pyrazol-1-yl)-[1,1′-biphenyl]-4-yl)ethoxy)pyrimidin-4-yl)-2,8-diazaspiro[4.5]decane-3-carboxylic acid]",
300 to 3000,"Nc1nc(O[C@H](c2ccc(-c3ccc(C(F)(F)F)cc3)cc2)C(F)(F)F)cc(N2CCC3(CC2)CN[C@H](C(=O)O)C3)n1 [Example 55cd, (S)-8-(2-amino-6-((R)-2,2,2-trifluoro-1-(4′-(trifluoromethyl)-[1,1′-biphenyl]-4-yl)ethoxy)pyrimidin-4-yl)-2,8-diazaspiro[4.5]decane-3-carboxylic acid]",
3000 to 10000,"Cc1ccn(-c2cc(CN(C)C)ccc2[C@@H](Oc2cc(N3CCC4(CC3)CN[C@H](C(=O)O)C4)nc(N)n2)C(F)(F)F)n1 [Example 26, (S)-8-(2-amino-6-((R)-1-(4-((dimethylamino)methyl)-2-(3-methyl-H-pyrazol-1-yl)phenyl)-2,2,2-trifluoroethoxy)pyrimidin-4-yl)-2,8-diazaspiro[4.5]decane-3-carboxylic acid]",
< 50,"Cc1cc(Cl)cc(-c2ccc([C@@H](Oc3cc(N4CCC5(CC4)CN[C@H](C(=O)O)C5)nc(N)n3)C(F)(F)F)c(-n3ccc(C)n3)c2)c1 [Example 1an, (S)-8-(2-amino-6-((R)-1-(3′-chloro-5′-methyl-3-(3-methyl-1H-pyrazol-1-yl)-[1,1′-biphenyl]-4-yl)-2,2,2-trifluoroethoxy)pyrimidin-4-yl)-2,8-diazaspiro[4.5]decane-3-carboxylic acid]",
50 to 300,"Nc1nc(O[C@H](c2ccc(-c3cccc(O)c3)cc2)C(F)(F)F)cc(N2CCC3(CC2)CN[C@H](C(=O)O)C3)n1 [Example 55ca, (S)-8-(2-amino-6-((R)-2,2,2-trifluoro-1-(3′-hydroxy-[1,1′-biphenyl]-4-yl)ethoxy)pyrimidin-4-yl)-2,8-diazaspiro[4.5]decane-3-carboxylic acid]",
300 to 3000,"CCCCc1ccc(-c2ccc([C@@H](Oc3cc(N4CCC5(CC4)CN[C@H](C(=O)O)C5)nc(N)n3)C(F)(F)F)cc2)cc1 [Example 55ct, (S)-8-(2-amino-6-((R)-1-(4′-butyl-[1,1′-biphenyl]-4-yl)-2,2,2-trifluoroethoxy)pyrimidin-4-yl)-2,8-diazaspiro[4.5]decane-3-carboxylic acid]",
50 to 300,"Nc1nc(O[C@H](c2ccc(-c3ccc(C(=O)N4CCNCC4)cc3)cc2)C(F)(F)F)cc(N2CCC3(CC2)CN[C@H](C(=O)O)C3)n1 [Example 55dl, (S)-8-(2-amino-6-((R)-2,2,2-trifluoro-1-(4′-(piperazine-1-carbonyl)-[1,1′-biphenyl]-4-yl)ethoxy)pyrimidin-4-yl)-2,8-diazaspiro[4.5]decane-3-carboxylic acid]",
< 50,"Cc1ccc(-c2ccc([C@@H](Oc3cc(N4CCC5(CC4)CN[C@H](C(=O)O)C5)nc(N)n3)C(F)(F)F)c(-c3ccccc3)c2)cc1C [Example 54f, (S)-8-(2-amino-6-((R)-1-(3,4-dimethyl-[1,1′:3′,1″-terphenyl]-4′-yl)-2,2,2-trifluoroethoxy)pyrimidin-4-yl)-2,8-diazaspiro[4.5]decane-3-carboxylic acid]",
300 to 3000,"Nc1nc(O[C@H](c2ccc(-c3cccc(C(=O)N4CCCCC4)c3)cc2)C(F)(F)F)cc(N2CCC3(CC2)CN[C@H](C(=O)O)C3)n1 [Example 55bx, (S)-8-(2-amino-6-((R)-2,2,2-trifluoro-1-(3′-(piperidine-1-carbonyl)-[1,1′-biphenyl]-4-yl)ethoxy)pyrimidin-4-yl)-2,8-diazaspiro[4.5]decane-3-carboxylic acid]",
